Where two headings read alike, the source gives them in different places. Blank lines part the entries; values can stand above or below the molecule they belong to.
Columns and labels:
K562 (Leukemia) cells = assay: Cell cycle distribution by flow cytometry; type: cell-based
Procedure: (§1) In order to investigate the mechanism underlying the anti-proliferative effect of the compounds the cell cycle distribution was analyzed in K562 (Leukemia) and MCF-7 (Breast carcinoma) cell lines by flow cytometry. Compounds CA-4, 21a, 21d, 4c, 6d, 6e, 6f, 7d, 7h and 7j have shown 1.72%, 14%, 12%, 14%, 12%, 14%, 14%, 16%, 16% &12% in K562 cells and 49.63%, 21%, 20%, 18%, 21%, 21%, 21%, 24%, 23% and 23% in MCF-7 cell line respectively. […] Thus compound 7d was considered for further studies (FIG. 1).

[1] = tested on: MCF-7 (Breast carcinoma) cells; assay: Cell cycle distribution by flow cytometry (FACS); type: cell-based; settings: MCF-7 cells, 2 μM, 24h
Procedure: FIG. 1 represents FACS analysis of cell cycle distribution of MCF-7 cells after treatment with compounds CA-4, 21a, 21d, 4c, 6d, 6e, 6f, 7d, 7h and 7j at 2 μM concentration for 24h and control cells are the cells treated with DMSO (0.25%).
as §1

caspase-9 = assay: Western blot, apoptosis proteins in MCF-7 cells; type: cell-based; settings: 2 μM, 24h
Procedure: (§2) FIG. 3 represents effect of compound 7d and 7h on p21 and caspase-9. MCF-7 cells were treated with 2 μM concentration of compounds 7d and 7h for 24h. The cell lysates were collected and probed with anti-bodies against p21 and caspase-9. beta-actin was used as loading control. Con: Control (untreated).
(§3) Activation of tumor suppressor gene p21 was the important regulator of apoptotic pathway caused by various stimuli. In many instances the apoptotic cell death is mediated by caspases, thus the possible involvement of p21 and caspase protein and its role in apoptosis has been investigated. MCF-7 cells were treated with 7d, 7h (the effective compounds of cell cycle arrest) 21a, 21d and CA-4 at 2 μM concentration.

p21 = assay: Western blot, apoptosis proteins in MCF-7 cells; type: cell-based; settings: 2 μM, 24h
Procedure: as §2, §3

CCRF-CEM = assay: SRB anticancer assay, leukemia; type: cell-based, human; settings: 48 h
K-562 = assay: SRB anticancer assay, leukemia; type: cell-based, human; settings: K-562, 48 h
MOLT-4 = assay: SRB anticancer assay, leukemia; type: cell-based, human; settings: MOLT-4, 48 h
SR = assay: SRB anticancer assay, leukemia; type: cell-based, human; settings: 48 h
A549/ATCC = assay: SRB anticancer assay, non-small lung; type: cell-based, human; settings: 48 h
EKVX = assay: SRB anticancer assay, non-small lung; type: cell-based, human; settings: 48 h
HOP-62 = assay: SRB anticancer assay, non-small lung; type: cell-based, human; settings: HOP-62, 48 h
NCI-H226 = assay: SRB anticancer assay, non-small lung; type: cell-based, human; settings: NCI-H226, 48 h
NCI-H23 = assay: SRB anticancer assay, non-small lung; type: cell-based, human; settings: NCI-H23, 48 h
NCI-H322M = assay: SRB anticancer assay, non-small lung; type: cell-based, human; settings: 48 h
NCI-H460 = assay: SRB anticancer assay, non-small lung; type: cell-based, human; settings: NCI-H460, 48 h
NCI-H522 = assay: SRB anticancer assay, non-small lung; type: cell-based, human; settings: NCI-H522, 48 h
HCT-116 = assay: SRB anticancer assay, colon; type: cell-based, human; settings: HCT-116, 48 h
HT29 = assay: SRB anticancer assay, colon; type: cell-based, human; settings: HT29, 48 h
KM12 = assay: SRB anticancer assay, colon; type: cell-based, human; settings: KM12, 48 h
SW-620 = assay: SRB anticancer assay, colon; type: cell-based, human; settings: SW-620, 48 h
SF-268 = assay: SRB anticancer assay, CNS; type: cell-based, human; settings: SF-268, 48 h
SF-295 = assay: SRB anticancer assay, CNS; type: cell-based, human; settings: SF-295, 48 h
SNB-19 = assay: SRB anticancer assay, CNS; type: cell-based, human; settings: SNB-19, 48 h
SNB-75 = assay: SRB anticancer assay, CNS; type: cell-based, human; settings: SNB-75, 48 h
U251 = assay: SRB anticancer assay, CNS; type: cell-based, human; settings: U251, 48 h
IGROV1 = assay: SRB anticancer assay, ovarian; type: cell-based, human; settings: IGROV1, 48 h
OVCAR-3 = assay: SRB anticancer assay, ovarian; type: cell-based, human; settings: OVCAR-3, 48 h
OVCAR-4 = assay: SRB anticancer assay, ovarian; type: cell-based, human; settings: OVCAR-4, 48 h
OVCAR-5 = assay: SRB anticancer assay, ovarian; type: cell-based, human; settings: OVCAR-5, 48 h
SK-OV-3 = assay: SRB anticancer assay, ovarian; type: cell-based, human; settings: SK-OV-3, 48 h
786-0 = assay: SRB anticancer assay, renal; type: cell-based, human; settings: 786-0, 48 h
A498 = assay: SRB anticancer assay, renal; type: cell-based, human; settings: A498, 48 h
ACHN = assay: SRB anticancer assay, renal; type: cell-based, human; settings: 48 h
CAKI-1 = assay: SRB anticancer assay, renal; type: cell-based, human; settings: CAKI-1, 48 h
SN12C = assay: SRB anticancer assay, renal; type: cell-based, human; settings: 48 h
TK-10 = assay: SRB anticancer assay, renal; type: cell-based, human; settings: TK-10, 48 h
UO-31 = assay: SRB anticancer assay, renal; type: cell-based, human; settings: UO-31, 48 h
RXF 393 = assay: SRB anticancer assay, renal; type: cell-based, human; settings: RXF 393, 48 h
PC-3 = assay: SRB anticancer assay, prostate; type: cell-based, human; settings: PC-3, 48 h
DU-145 = assay: SRB anticancer assay, prostate; type: cell-based, human; settings: DU-145, 48 h
MCF7 = assay: SRB anticancer assay, breast; type: cell-based, human; settings: MCF7, 48 h
MDA-MB-231/ATCC = assay: SRB anticancer assay, breast; type: cell-based, human; settings: 48 h, read-out: GI50
HS 578T = assay: SRB anticancer assay, breast; type: cell-based, human; settings: 48 h
BT-549 = assay: SRB anticancer assay, breast; type: cell-based, human; settings: BT-549, 48 h
MALME-3M = assay: SRB anticancer assay, melanoma; type: cell-based, human; settings: MALME-3M, 48 h
M14 = assay: SRB anticancer assay, melanoma; type: cell-based, human; settings: M14, 48 h
MDA-MB-435 = assay: SRB anticancer assay, melanoma; type: cell-based, human; settings: MDA-MB-435, 48 h
SK-MEL-28 = assay: SRB anticancer assay, melanoma; type: cell-based, human; settings: SK-MEL-28, 48 h
SK-MEL-5 = assay: SRB anticancer assay, melanoma; type: cell-based, human; settings: SK-MEL-5, 48 h
UACC-62 = assay: SRB anticancer assay, melanoma; type: cell-based, human; settings: UACC-62, 48 h
[2] = tested on: microtubule network of MCF-7 cells; assay: Effect on microtubule network; type: cell-based; settings: 2 μM
Procedure: FIG. 2 represents effect of compound 7d, the effective compound on the microtubule network of MCF-7 cells untreated cells (Con), nocodazole (Noc) and 7d at 2 μM concentration. Microtubules and unassembled tubulin are shown in green and DNA was stained with nuclear dye DAPI (4,6-diamidino-2-phenylindole) is shown in blue colour.
Inhibition of tubulin is associated with G2/M cell cycle arrest by interrupting chromosome segregation and affecting mitotic spindle formation. […] It was considered of interest to understand the mechanism of anti-cancer activity of compound 7d with regard to interaction with microtubule system. MCF-7 breast cancer cells were treated with Nocodazole (Noc), 7d compounds at 2 μM concentration.

HL-60 (TB) = assay: SRB anticancer assay, leukemia; type: cell-based, human; settings: HL-60 (TB), 48 h; read-out: GI50
COLO 205 = assay: SRB anticancer assay, colon; type: cell-based, human; settings: COLO 205, 48 h
HCC-2998 = assay: SRB anticancer assay, colon; type: cell-based, human; settings: HCC-2998, 48 h
HCT-15 = assay: SRB anticancer assay, colon; type: cell-based, human; settings: HCT-15, 48 h
LOX IMVI = assay: SRB anticancer assay, melanoma; type: cell-based, human; settings: 48 h
UACC-257 = assay: SRB anticancer assay, melanoma; type: cell-based, human; settings: UACC-257, 48 h
[3] = MDA-MB-231/ATCC (row head MDA-MB-)

Compound: Nc1ccc(-c2nc3ccc(F)cc3s2)cc1 [Compound 21a, 4-(6-fluorobenzo[d]thiazol-2-yl)benzenamine]
cells in G2/M phase (K562 (Leukemia) cells): 14%
cells in G2/M phase [1]: 21%
caspase-9 protein (Western blot) (caspase-9): increase
p21 protein (Western blot) (p21): increase

GI50 (CCRF-CEM): 0.79 µM
GI50 (K-562): 36.3 µM
GI50 (MOLT-4): 26.9 µM
GI50 (SR): 21.9 µM
GI50 (A549/ATCC): 34.7 µM
GI50 (EKVX): 4.07 µM
GI50 (HOP-62): 30.9 µM
GI50 (NCI-H226): 60.3 µM
GI50 (NCI-H23): 12.6 µM
GI50 (NCI-H322M): 39.8 µM
GI50 (NCI-H460): 38.9 µM
GI50 (NCI-H522): 30.2 µM
GI50 (HCT-116): 43.7 µM
GI50 (HT29): 37.2 µM
GI50 (KM12): 57.6 µM
GI50 (SW-620): 66.1 µM
GI50 (SF-268): 35.5 µM
GI50 (SF-295): 31.6 µM
GI50 (SNB-19): 45.7 µM
GI50 (SNB-75): 15.8 µM
GI50 (U251): 31.6 µM
GI50 (IGROV1): 47.9 µM
GI50 (OVCAR-3): 38.9 µM
GI50 (OVCAR-4): 37.2 µM
GI50 (OVCAR-5): 83.2 µM
GI50 (SK-OV-3): 37.2 µM
GI50 (786-0): 29.5 µM
GI50 (A498): 41.7 µM
GI50 (ACHN): 53.7 µM
GI50 (CAKI-1): 34.7 µM
GI50 (SN12C): 38.9 µM
GI50 (TK-10): 77.6 µM
GI50 (UO-31): 21.4 µM
GI50 (RXF 393): 30.2 µM
GI50 (PC-3): 50.1 µM
GI50 (DU-145): 33.9 µM
GI50 (MCF7): 56.2 µM
GI50 (MDA-MB-231/ATCC; [3]): 44.7 µM
GI50 (MDA-MB-231/ATCC; listed as head printed 231/ATCC (second line of MDA-MB-231/ATCC)): 95.5 µM
GI50 (HS 578T): 14.1 µM
GI50 (BT-549): 22.4 µM
GI50 (MALME-3M): 83.2 µM
GI50 (M14): 33.1 µM
GI50 (MDA-MB-435): 89.1 µM
GI50 (SK-MEL-28): 64.6 µM
GI50 (SK-MEL-5): 52.5 µM
GI50 (UACC-62): 57.6 µM
Compound: Cc1cc(-c2nc3ccc(O)cc3s2)ccc1N [Compound 3b, reference compound]

Compound: COC(=O)Nc1nc2ccc(C(=O)c3cccs3)cc2[nH]1 [Nocodazole, reference compound]
microtubulin organization [2]: disrupted microtubulin organization

Compound: COc1cc2nc(-c3ccc(N)cc3)sc2c(OC)c1OC [Compound 21d, 4-(5,6,7-trimethoxybenzo[d]thiazol-2-yl)benzenamine]
cells in G2/M phase (K562 (Leukemia) cells): 12%
cells in G2/M phase [1]: 20%
caspase-9 protein (Western blot) (caspase-9): increase
p21 protein (Western blot) (p21): increase

GI50 (CCRF-CEM): 6.45 µM
GI50 (HL-60 (TB)): 8.71 µM
GI50 (K-562): 6.02 µM
GI50 (MOLT-4): 19.5 µM
GI50 (SR): 17.4 µM
GI50 (A549/ATCC): 28.8 µM
GI50 (EKVX): 34.7 µM
GI50 (NCI-H226): 0.35 µM
GI50 (NCI-H23): 58.9 µM
GI50 (NCI-H322M): 43.7 µM
GI50 (NCI-H460): 53.7 µM
GI50 (NCI-H522): 32.4 µM
GI50 (COLO 205): 51.3 µM
GI50 (HCC-2998): 250 nM
GI50 (HCT-116): 43.7 µM
GI50 (HCT-15): 47.9 µM
GI50 (HT29): 29.5 µM
GI50 (SF-295): 64.6 µM
GI50 (SNB-75): 33.1 µM
GI50 (U251): 66.1 µM
GI50 (IGROV1): 0.042 µM
GI50 (OVCAR-4): 0.54 µM
GI50 (A498): 42.7 µM
GI50 (ACHN): 51.3 µM
GI50 (SN12C): 50.1 µM
GI50 (TK-10): 0.18 µM
GI50 (UO-31): 6.45 µM
GI50 (RXF 393): 70.6 µM
GI50 (PC-3): 31.6 µM
GI50 (DU-145): 61.7 µM
GI50 (MCF7): 0.03 µM
GI50 (MDA-MB-231/ATCC; [3]): 66.1 µM
GI50 (HS 578T): 66.1 µM
GI50 (BT-549): 0.1 µM
GI50 (LOX IMVI): 37.2 µM
GI50 (M14): 57.6 µM
GI50 (MDA-MB-435): 79.5 µM
GI50 (SK-MEL-5): 21.9 µM
GI50 (UACC-257): 74.2 µM
GI50 (UACC-62): 70.8 µM
Compound: Cc1cc(-c2nc3ccccc3s2)ccc1N [Compound 3a, reference compound]

Compound: COc1ccc(/C=C\c2cc(OC)c(OC)c(OC)c2)cc1O [CA-4, Combretastatin A-4, reference compound]
cells in G2/M phase (K562 (Leukemia) cells): 1.72%
cells in G2/M phase [1]: 49.63%
caspase-9 protein (Western blot) (caspase-9): increase
p21 protein (Western blot) (p21): increase

From patent US9187467B2, “2-phenyl benzothiazole linked imidazole compounds as potential anticancer agents and process for the preparation thereof” (Council of Scientific and Industrial Research, priority 2012, dated 2015)
